The text below walks through data of patent US4981855A, “Medicament for psoriasis” (Takeda Chemical Industries, Ltd., priority 1988, dated 1991).

For data set [1], the system named is Type III Allergic Reaction (Reversed Passive Arthus Reaction). Put plainly: Type III allergic reaction (reversed passive Arthus reaction) in rats, oral (Experiment 1). Type of data set: in vivo, Rat (Jcl:SD). The note with it: Rat; for inhibition in vivo at 3 mg/kg: 1 h, 3 mg/kg P.O., one hour before egg albumin, blue spot area vs. control, * P < 0.05, ** P < 0.01, read-out: Inhibition rate (%); for ED50: P.O., read-out: ID50 values. The protocol: Effect on Type III Allergic Reaction (Reversed Passive Arthus Reaction) in Rats
A group consisting of six Jcl:SD rats (7 week old, male) was used. The hair of the back of the animals was cut, under ether anesthesia, and 1 ml each of a 0.5% solution of egg albumin in physiological saline solution was injected into the tail vein of each test animal, followed by intradermal injection of 0.1 ml of rabbit anti-egg albumin antiserum at each of the left and right sides of the back and a further intradermal injection of 0.1 ml of physiological saline solution at the left side. Three hours later, each animal was intraveneously injected with 1 ml of 1% Evans' blue physiological saline solution. Thirty minutes later, the test animals were exfoliated and the area(mm^2) of each of the blue spots was measured. […] By comparing the area(mm^2) of the blue spot in the test group (treated group) with that of the control group (untreated group), inhibition rate was determined.

Data set [2] can be described thus: Acute toxicity in rats (Experiment 3). Also noted: species or system Rat (JcL:Wistar). Conditions: rat, in vivo. An excerpt:
(§1) The acute toxicity of the compound (A) was examined by using Jcl:ICR mice and JcL:Wistar rats.

In data set [3] the test system is skin of the backs of rabbits (normal skin and damaged skin). Put plainly: Four-week cumulative skin irritation test in rabbits (Experiment 4). Type of data set: in vivo, Rabbit. The note with it: 0.25 g once a day for 4 weeks. The text has this:
Four-Week Cumulative Skin Irritation Test in Rabbits [Procedure]
0.25 g of each of white petrolatum (placebo) and 2.5% and 5.0% compound (A) ointments (of which base is white petrolatum) was applied to 2.5×2.5cm test sites (normal skin and damaged skin) formed on the skin of the backs of rabbits once a day for 4 weeks. The skin was observed daily according to the method of Draize [J. H. Draize et al., J. Pharmacol. Exp. Therap. 82, 337 (1944)]. On the day succeeding the completion of the administration, postmortem examinations were carried out and histopathologic examinations were conducted for the skin of the administrated sites.

For data set [4], the system named is Reversed Passive Arthus Reaction. Put plainly: Rat reversed passive Arthus reaction, percutaneous ointment (Experiment 2). The note with it: for Inhibition rate (%): ointment (white petrolatum base). Type of data set: in vivo, Rat (Jcl:SD). The protocol:
A group consisting of six Jcl:SD rats (7 week old, male) was used. The hair of the back of the animals was cut, under ether anesthesia, and 1 ml each of a 0.5% solution of egg albumin in physiological saline solution was injected into the tail vein of each test animal, followed by intradermal injection of 0.1 ml of rabbit anti-egg albumin antiserum at each of the left and right sides of the back and a further intradermal injection of 0.1 ml of physiological saline solution at the left side. Three hours later, each animal was intraveneously injected with 1 ml of 1% Evans' blue physiological saline solution. Thirty minutes later, the test animals were exfoliated and the area(mm^2) of each of the blue spots was measured. The test sample in a dose of 3 mg/kg was orally administered one hour before the injection of egg albumin. By comparing the area(mm^2) of the blue spot in the test group (treated group) with that of the control group (untreated group), inhibition rate was determined.
In place of the oral administration of 3 mg/kg of each specimen, two type of ointments (of which base is white petrolatum) different in specimen content as given in Table 2 and control petrolatum were applied to the reaction sites in an experiment in a similar manner as in Experiment 1.

Data set [5] in a line: Acute toxicity in mice (Experiment 3). Type of data set: in vivo, Mouse (Jcl:ICR). Conditions: mouse, in vivo.
Description: as §1

The next data set concerns Jcl:ICR mice. Put plainly: Acute toxicity in mice (Experiment 3). Type of data set: in vivo, Mouse (Jcl:ICR). Conditions: mice and rats; intraperitoneal, subcutaneous and oral (Table 3).
Description: as §1

Turning to `CCCCn1c(=O)c2c(NC)n(C(=O)OC)nc2n(CCC)c1=O` [Compound 7], in data set [1], the inhibition in vivo at 3 mg/kg is 49% and the ED50 was determined as 3 mg/kg.

In the case of `CCCCn1c(=O)c2c(NC)n(C(=O)OC)nc2n(CCCC)c1=O` [Compound 8], in data set [1], the inhibition in vivo at 3 mg/kg amounted to 30% and the ED50 worked out at 30 mg/kg.

As for `CCCCn1c(=O)c2c(NC)n(C)nc2n(CCCC)c1=O` [Compound 9], in data set [1], the inhibition in vivo at 3 mg/kg was found to be 31%.

On to `CCCCn1c(=O)n(CCC)c(=O)c2c(NC)n(C(=O)OC)nc21` [Compound 6], for which, in data set [1], the inhibition in vivo at 3 mg/kg came to 43% and the ED50 was found to be 5.3 mg/kg.

As for `CCCn1c(=O)c2c(N(C)C)nn(C)c2n(CCC)c1=O` [Compound 5], the inhibition in vivo at 3 mg/kg in data set [1] was found to be 53%.

The term LD50 denotes the dose expected to kill half of the subjects tested. High values mean a less toxic substance, low ones a more toxic substance. Consider `CCCCn1c(=O)n(CCC)c(=O)c2c(NC)n(C(=O)OC)nc21` [Compound (A)], for which the LD50 in data set [2] (ip, female, intraperitoneal) is 580 mg/kg; in data set [2] (ip, male, intraperitoneal), 650 mg/kg; in data set [2] (po, female), 2380 mg/kg; in data set [2] (po, male) it was 2730 mg/kg; in data set [2] (sc, female, subcutaneous) it was more than 6500 mg/kg; in data set [2] (sc, male, subcutaneous), more than 6500 mg/kg. The LD50 in data set [5] (ip, female, intraperitoneal) was 1260 mg/kg; in data set [5] (ip, male, intraperitoneal) it was 1040 mg/kg; in data set [5] (po, female), 6310 mg/kg; in data set [5] (po, male), 4650 mg/kg; in data set [5] (sc, female, subcutaneous), more than 5000 mg/kg; in data set [5] (sc, male, subcutaneous), more than 5000 mg/kg. In addition, the cumulative skin irritation entry in data set [3] (2.5% ointment (white petrolatum base)) and in data set [3] (5% ointment (white petrolatum base)) was “no cumulative skin irritation” throughout. Also, the “Inhibition rate (%)” value in data set [4] (1.25 mg/site, *p < 0.05 vs. control) was found to be 46%; in data set [4] (2.5 mg/site, **p < 0.01 vs. control) it was 59%. The “effect on reversed passive Arthus reaction” value in data set [4] (percutaneous administration) was “significantly depresses the reversed passive Arthus reaction”. The “acute toxicity” value in the data set on Jcl:ICR mice is “low in toxicity and can be safely administered”.

As to `CCCn1c(=O)c2c(N(C)C)n(C)nc2n(CCC)c1=O` [Compound 4], in data set [1], the inhibition in vivo at 3 mg/kg stood at 56%.

As to `CCCn1c(=O)c2c(NC(C)=O)[nH]nc2n(CCC)c1=O` [Compound 3], in data set [1], the inhibition in vivo at 3 mg/kg was 55% and the ED50 was 2.9 mg/kg.

As to `CCn1c(=O)c2c(N)n(C(=O)OC)nc2n(CC)c1=O` [Compound 1], in data set [1], the inhibition in vivo at 3 mg/kg amounted to 35% and the ED50 came to 13.7 mg/kg.

For `CCCn1c(=O)c2c(N)n(C(=O)OC)nc2n(CCC)c1=O` [Compound 2], in data set [1], the inhibition in vivo at 3 mg/kg was 50% and the ED50 amounted to 2.4 mg/kg.
